{
  "source": "patent US20230124374A1",
  "about": "“COMPOSITIONS AND METHODS FOR EYE HEALTH COMPRISING VERY LONG CHAIN FATTY ACIDS” (BAUSCH + LOMB IRELAND LIMITED, priority 2020, published 2023)",
  "key": {"[1]": {"experiment": "single-dose bioavailability study, gavage feeding of 32:6 n-3 loaded liposomes, GC-MS of tissue lipids", "type": "in vivo, wild-type (WT) C57BL/6J mice", "protocol": "FIGS. 1A and 1B show wild-type (WT) mice single-dose bioavailability studies: (1A) Serum absorption kinetics of C32 acid (6n-3) (“32:6n-3”) after single-dose gavage feeding of 6 mg/mouse (n=4 mice/time point) and (1B) retina and RPE uptake of 32:6 n-3 after single-dose gavage feeding. No VLCPUFAs were detected in liver, brain, or RBC membranes at any time point. Data are presented as mean±SEM (***P<0.005; **P<0.01; *P<0.05).\nThree month old wild-type (WT) C57BL/6J mice (22±3 g) were each gavage fed 6 mg per day of C32 acid (6n-3) (“32:6 n-3”) loaded VLCPUFA liposomes (0.1 mL) (250 mg/kg body weight) prepared as disclosed in Gorusupudi et al. PNAS 118(6), e2017739118 (2021), which is incorporated herein by reference in its entirety. The mice were killed 0, 2, 4, 8, and 24 h after gavage (n=4 mice/time interval) to harvest the blood and other tissues. Eyes were dissected under a microscope to separate the retina from the RPE. One pair of retinas/mouse was used for lipid extraction, and blood was centrifuged for 5 minutes at 7,500 rpm to separate serum from RBCs. Serum, RBCs, brain, liver, retina, and RPE were used for lipid extractions and GC-MS analysis.\n(§1) On the other hand, 32:6 n-3 remained undetectable in liver, brain, and red blood cell (RBC) membranes throughout the 24 h period. Longer-term absorption was studied by gavage feeding VLCPUFA-loaded liposomes (0.1 mL) to WT (22±3 g) and conditional KO mice developed with an intention to ablate Elov14 expression completely in both rods and cones (E4cKO mice) (23±3 g) for 15 d with 0, 1, and 2 mg/d 32:6 n-3 (n=6 mice/group). Mice were fed each morning with liposomes prepared as above containing 0 mg/d (0 mg/kg BW), 1 mg/d (40 mg/kg BW), or 2 mg/d (80 mg/kg BW) of 32:6 n-3. Mice were killed at the end of the experiments, and retina, RPE, liver, serum, RBCs, and brain tissues were harvested, extracted for lipids, and analyzed by GC-MS."}, "[2]": {"experiment": "phospholipid analysis of retina and RPE by LC-MS/MS after 15 days of gavage feeding", "type": "in vivo, WT mice", "conditions": "15 days gavage, 2 mg/day, supplemented WT animals", "protocol": "FIGS. 3A and 3B show phospholipid analysis of wild type (WT) mice after 15 days of gavage feeding of VLCPUFA 32:6n-3 (2 mg/day): (3A) Retina and (3B) RPE. Data presented as mean±SEM (n=8 mice/group) (p values: *p<0.05; N.S.: not significant; N.D.: not detectable).\n(§2) Retina and RPE were extracted for phospholipid analysis using liquid chromatography-tandem MS (LC-MS/MS), and increases in phosphatidylcholine (PC)-22:6/32:6 were detected in the retina and RPE in the supplemented WT animals (FIGS. 3A and 3B). Retinal and RPE 32:6 n-3 levels in the E4cKO mice were one-third and one-half of the levels in the age-matched WT mice, respectively (FIG. 4A)."}, "[3]": {"experiment": "long-term uptake of 32:6 n-3 in Elov14 rod-cone conditional KO mice, 15 d gavage feeding", "type": "in vivo, E4cKO mice", "conditions": "2 mg/d", "protocol": "FIGS. 4A and 4B show long-term uptake of 32:6n-3 (2 mg/d per mouse) in Elov14 rod-cone conditional KO (E4cKO) mice: (4A) Accumulation of 32:6 n-3 in E4cKO mouse retinas and RPE in comparison to age-matched WT mice after 15 d of gavage feeding (n=6 mice/group) and (4B) Accumulation of 32:6n-3 in liver and RBCs in E4cKO mice in comparison to age-matched WT mice after 15 d of gavage feeding. Data are presented as mean±SEM (**P<0.01; N.S.: not significant; N.D.: not detectable).\nas §1, §2"}, "[4]": {"experiment": "repeated-dose (15 d) bioavailability study, gavage feeding of 32:6 n-3 loaded liposomes, GC-MS of tissue lipids", "type": "in vivo, WT mice", "conditions": "15 d gavage", "protocol": "FIGS. 2A and 2B show WT mice repeated-dose bioavailability studies: (2A) Accumulation of 32:6 n-3 in mouse retina and RPE after 15 d of gavage feeding (n=6 mice/group) and (2B) Bioaccumulation of 32:6n-3 in serum, RBC, and liver after 15 d of gavage feeding. […] Data are presented as mean±SEM (***P<0.005; **P<0.01; N.S.: not significant; N.D.: not detectable).\nas §1"}, "[5]": {"conditions": "levels as high as 800.0 mg; cited from earlier work"}, "[6]": {"conditions": "single gavage dose 6 mg/mouse, 4 to 8 h after gavage"}, "[7]": {"conditions": "single gavage dose 6 mg/mouse, throughout the 24 h period"}, "[8]": {"conditions": "versus undetectable levels at 0 mg/d"}, "[9]": {"conditions": "32:6 n-3-fed groups versus control mice (undetectable)"}},
  "data": [
    {"compound": "CC/C=C\\C/C=C\\C/C=C\\C/C=C\\C/C=C\\C/C=C\\CCCCCCCCCCCCC(=O)O", "note": "[32:6 n-3, C32 acid (6n-3)]", "values": [
      {"measurement": "time after oral administration at which serum 32:6 n-3 became detectable", "setting": "[1]; single gavage dose 6 mg/mouse (250 mg/kg), serum", "value": "≤ 2", "unit": "h"},
      {"measurement": "32:6 n-3 in the RPE", "setting": "[1]; [6]", "value": "significant increase"},
      {"measurement": "32:6 n-3 in the retina", "setting": "[1]; [6]", "value": "significant increase"},
      {"measurement": "serum 32:6 n-3 concentration course", "setting": "[1]; single gavage dose 6 mg/mouse, serum, over the next 24 h", "value": "reached a lower steady-state concentration"},
      {"measurement": "32:6 n-3 in brain", "setting": "[1]; [7]", "value": "undetectable"},
      {"measurement": "32:6 n-3 in liver", "setting": "[1]; [7]", "value": "undetectable"},
      {"measurement": "32:6 n-3 in red blood cell (RBC) membranes", "setting": "[1]; [7]", "value": "undetectable"},
      {"measurement": "phosphatidylcholine (PC)-22:6/32:6 in the RPE", "setting": "[2]", "value": "increases"},
      {"measurement": "phosphatidylcholine (PC)-22:6/32:6 in the retina", "setting": "[2]", "value": "increases"},
      {"measurement": "increase of 32:6 n-3 level in the retina relative to control-fed E4cKO mice", "setting": "[3]; 8-mo-old E4cKO mice, P<0.01", "value": "nearly fivefold increase"},
      {"measurement": "increase of 32:6 n-3 level in the RPE relative to control-fed E4cKO mice", "setting": "[3]; 8-mo-old E4cKO mice, P=0.001", "value": 27, "unit": "fold"},
      {"measurement": "total retinal VLCPUFAs", "setting": "[3]; E4cKO mice", "value": "0.088±0.02", "unit": "%"},
      {"measurement": "RBC 32:6 n-3", "setting": "[3]; [8]", "value": "became detectable"},
      {"measurement": "liver 32:6 n-3", "setting": "[3]; [8]", "value": "became detectable"},
      {"measurement": "VLCPUFAs in the brain", "setting": "[4]", "value": "no VLCPUFAs were ever detectable"},
      {"measurement": "total retinal VLCPUFAs", "setting": "[4]; 1 mg/d group", "value": "0.535±0.06", "unit": "%"},
      {"measurement": "total retinal VLCPUFAs", "setting": "[4]; 2 mg/d group", "value": "0.872±0.10", "unit": "%"},
      {"measurement": "32:6 n-3 in the liver", "setting": "[4]; 2 mg/d group (only group with detectable levels)", "value": "detectable"},
      {"measurement": "RBC VLCPUFAs", "setting": "[4]; [9]", "value": "significantly increased"},
      {"measurement": "serum VLCPUFAs", "setting": "[4]; [9]", "value": "significantly increased"},
      {"measurement": "increase of C32 acid (6n-3) level in RPE versus 0 mg/d controls", "setting": "[4]; both fed groups (1 and 2 mg/d)", "value": "sevenfold"},
      {"measurement": "increase of C32 acid (6n-3) level in the retina versus 0 mg/d controls", "setting": "[4]; both fed groups (1 and 2 mg/d)", "value": "more than twofold"}
    ]},
    {"compound": "vitamin E", "values": [
      {"measurement": "adverse effects", "setting": "[5]", "value": "No adverse effects"}
    ]}
  ]
}
